Assay results reported in patent US9556179B2 (BRISTOL-MYERS SQUIBB COMPANY, priority 2012, dated 2017).

Assays:
CK1δ = CK1δ (Homo sapiens (Human), UniProt P48730); assay: CK1δ kinase assay (Caliper LABCHIP electrophoretic separation of fluoresceinated peptide substrate and product); type: biochemical; settings: 200 pM enzyme, 50 μM ATP, 22 hours at room temperature
Procedure: (§1) CK1ε and CK1δ Kinase Assays
(§2) The kinase assay was performed in V-bottom 384-well plates. […] The reaction was incubated at room temperature for 22 hours and terminated by adding 45 μl of 35 mM EDTA to each sample. The reaction mixture was analyzed on the Caliper LABCHIP®3000 (Caliper, Hopkinton, Mass.) by electrophoretic separation of the unphosphorylated substrate and phosphorylated product. […] Compounds were dissolved at 10 mM in dimethylsulfoxide (DMSO) and evaluated at eleven concentrations. IC50 values were derived by non-linear regression analysis.

CK1ε = CK1ε (Homo sapiens (Human), UniProt P49674); assay: CK1ε kinase assay (Caliper LABCHIP electrophoretic separation of fluoresceinated peptide substrate and product); type: biochemical; settings: 200 pM enzyme, 50 μM ATP, 22 hours at room temperature
Procedure: as §1, §2

CK1ε, sequence (P49674 whole entry): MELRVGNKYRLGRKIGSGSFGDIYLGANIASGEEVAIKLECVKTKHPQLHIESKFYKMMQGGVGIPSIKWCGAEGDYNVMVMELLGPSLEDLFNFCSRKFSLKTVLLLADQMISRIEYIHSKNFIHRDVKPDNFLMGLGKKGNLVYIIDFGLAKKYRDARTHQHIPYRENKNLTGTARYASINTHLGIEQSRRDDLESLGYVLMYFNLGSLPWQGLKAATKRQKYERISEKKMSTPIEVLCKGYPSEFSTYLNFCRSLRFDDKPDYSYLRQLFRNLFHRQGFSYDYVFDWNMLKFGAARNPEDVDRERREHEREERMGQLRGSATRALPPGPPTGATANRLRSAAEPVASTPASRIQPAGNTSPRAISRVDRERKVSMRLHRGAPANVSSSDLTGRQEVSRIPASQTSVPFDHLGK
CK1δ, sequence (P48730 whole entry): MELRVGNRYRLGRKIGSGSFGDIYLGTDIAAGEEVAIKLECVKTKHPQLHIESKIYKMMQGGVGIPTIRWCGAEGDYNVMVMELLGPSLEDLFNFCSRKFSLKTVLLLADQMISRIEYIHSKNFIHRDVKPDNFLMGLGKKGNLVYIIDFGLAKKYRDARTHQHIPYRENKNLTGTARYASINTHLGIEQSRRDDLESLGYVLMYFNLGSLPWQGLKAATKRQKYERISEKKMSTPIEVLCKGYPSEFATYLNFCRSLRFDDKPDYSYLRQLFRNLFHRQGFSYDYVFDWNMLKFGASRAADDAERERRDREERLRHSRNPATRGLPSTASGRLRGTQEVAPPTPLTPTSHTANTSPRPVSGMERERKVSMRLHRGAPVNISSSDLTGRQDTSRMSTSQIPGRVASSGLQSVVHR

`O=C(Nc1cn2nc(-c3c(-c4ccc(F)cc4)nc4n3CCN(C(=O)CC(F)(F)F)C4)ccc2n1)c1ccnc(F)c1` [Compound 461, 2-Fluoro-N-(6-(2-(4-fluorophenyl)-7-(3,3,3-trifluoropropanoyl)-5,6,7,8-tetrahydroimidazo[1,2-a]pyrazin-3-yl)imidazo[1,2-b]pyridazin-2-yl)isonicotinamide] showed an IC50 (CK1δ) of 0.6 nM and an IC50 (CK1ε) of 2.6 nM.
Compound `Cn1ccc(Cn2cnc(-c3ccc(F)cc3)c2-c2ccc3nc(NC(=O)c4ccnc(F)c4)cn3n2)n1` [Compound 269, 2-fluoro-N-(6-(4-(4-fluorophenyl)-1-((1-methyl-1H-pyrazol-3-yl)methyl)-1H-imidazol-5-yl)imidazo[1,2-b]pyridazin-2-yl) isonicotinamide] has an IC50 (CK1δ) of 1.08 nM and an IC50 (CK1ε) of 9.39 nM.
With `Cc1cc(C)c(-c2cccnc2)cc1C(=O)Nc1cn2nc(-c3c(-c4ccc(F)cc4)nc(C)n3C)ccc2n1` [Compound 402, N-(6-(4-(4-Fluorophenyl)-1,2-dimethyl-1H-imidazol-5-yl)imidazo[1,2-b]pyridazin-2-yl)-2,4-dimethyl-5-(pyridin-3-yl)benzamide] the IC50 (CK1δ) was 0.463 nM and the IC50 (CK1ε) was 7.47 nM.
Work on `O=C(Nc1cn2nc(-c3c(-c4ccc(F)cc4)ncn3-c3cccnc3)ccc2n1)c1ccnc(N2CCOCC2)c1` [Compound 424, N-(6-(4-(4-Fluorophenyl)-1-(pyridin-3-yl)-1H-imidazol-5-yl)imidazo[1,2-b]pyridazin-2-yl)-2-morpholinoisonicotinamide] yielded an IC50 (CK1δ) of 1 nM and an IC50 (CK1ε) of 13.6 nM.
For `O=C(Nc1cn2nc(-c3c(-c4ccc(F)cc4)ncn3C3CCOCC3)ccc2n1)c1ccncc1` [Compound 434, N-(6-(4-(4-Fluorophenyl)-1-(tetrahydro-2H-pyran-4-yl)-1H-imidazol-5-yl)imidazo[1,2-b]pyridazin-2-yl)isonicotinamide], the IC50 (CK1δ) was 0.3 nM and the IC50 (CK1ε) was 1.8 nM.
`Cc1nc(-c2ccc(F)cc2)c(-c2ccc3nc(NC(=O)c4ccnc(F)c4)cn3n2)n1C1CCN(CCCF)CC1` [Compound 140, 2-fluoro-N-(6-(4-(4-fluorophenyl)-1-(1-(3-fluoropropyl)piperidin-4-yl)-2-methyl-1H-imidazol-5-yl)imidazo[1,2-b]pyridazin-2-yl)isonicotinamide] was tested, and the IC50 (CK1δ) was 2.29 nM and the IC50 (CK1ε) was 22.2 nM.
`Cc1nc(-c2ccc(F)cc2)c(-c2ccc3nc(NC(=O)c4cocn4)cn3n2)n1C` [Compound 355, N-(6-(4-(4-fluorophenyl)-1,2-dimethyl-1H-imidazol-5-yl)imidazo[1,2-b]pyridazin-2-yl)-1,3-oxazole-4-carboxamide] was tested, and the IC50 (CK1δ) was 3.8 nM and the IC50 (CK1ε) was 38.7 nM.
With `O=C(Nc1cn2nc(-c3c(-c4ccc(F)cc4)ncn3C3CCN(C(=O)c4ccon4)CC3)ccc2n1)c1ccncc1` [Compound 5, N-(6-(4-(4-fluorophenyl)-1-(1-(isoxazole-3-carbonyl)piperidin-4-yl)-1H-imidazol-5-yl)imidazo[1,2-b]pyridazin-2-yl)isonicotinamide] the IC50 (CK1δ) was 0.379 nM and the IC50 (CK1ε) was 1.42 nM.
In the case of `O=C(Nc1cn2nc(-c3c(-c4ccc(F)cc4)ncn3C3CCN(C(=O)C4CC(F)(F)C4)CC3)ccc2n1)c1ccnc(F)c1` [Compound 67, N-(6-(1-(1-(3,3-difluorocyclobutanecarbonyl)piperidin-4-yl)-4-(4-fluorophenyl)-1H-imidazol-5-yl)imidazo[1,2-b]pyridazin-2-yl)-2-fluoroisonicotinamide], the IC50 (CK1δ) is reported as 0.116 nM.
Compound `O=C(Nc1cn2nc(-c3c(-c4ccc(F)cc4)ncn3C3CCN(CCN4CCOCC4)CC3)ccc2n1)c1ccnc(F)c1` [Compound 23, 2-fluoro-N-(6-(4-(4-fluorophenyl)-1-(1-(2-morpholinoethyl)piperidin-4-yl)-1H-imidazol-5-yl)imidazo[1,2-b]pyridazin-2-yl)isonicotinamide] has an IC50 (CK1δ) of 0.183 nM and an IC50 (CK1ε) of 0.675 nM.
`CS(=O)(=O)N1CCn2c(nc(-c3ccc(F)cc3)c2-c2ccc3nc(NC(=O)c4ccnc(F)c4)cn3n2)C1` [Compound 476, 2-Fluoro-N-(6-(2-(4-fluorophenyl)-7-(methylsulfonyl)-5,6,7,8-tetrahydroimidazo[1,2-a]pyrazin-3-yl)imidazo[1,2-b]pyridazin-2-yl)isonicotinamide] was tested, and the IC50 (CK1δ) was 0.3 nM and the IC50 (CK1ε) was 2.5 nM.
In the case of `O=C(Nc1cn2nc(-c3c(-c4ccc(F)cc4)ncn3CC(F)F)ccc2n1)c1cnc(-c2ccncc2)s1` [Compound 415, N-(6-(1-(2,2-Difluoroethyl)-4-(4-fluorophenyl)-1H-imidazol-5-yl)imidazo[1,2-b]pyridazin-2-yl)-2-(pyridin-4-yl)thiazole-5-carboxamide], the IC50 (CK1δ) is reported as 1.21 nM and the IC50 (CK1ε) is reported as 8.71 nM.
`Cc1nc(-c2cccnc2)sc1C(=O)Nc1cn2nc(-c3c(-c4ccc(F)cc4)ncn3C3CCN(C[C@H](O)C(F)(F)F)CC3)ccc2n1` [Compound 99, (S)—N-(6-(4-(4-fluorophenyl)-1-(1-(3,3,3-trifluoro-2-hydroxypropyl)piperidin-4-yl)-1H-imidazol-5-yl)imidazo[1,2-b]pyridazin-2-yl)-4-methyl-2-(pyridin-3-yl)thiazole-5-carboxamide] was tested, and the IC50 (CK1δ) was 0.329 nM and the IC50 (CK1ε) was 1.26 nM.
For `Cc1cc(C)n(CCC(=O)Nc2cn3nc(-c4c(-c5ccc(F)cc5)nc5ccccn45)ccc3n2)n1` [Compound 215, 3-(3,5-dimethyl-1H-pyrazol-1-yl)-N-(6-(2-(4-fluorophenyl)imidazo[1,2-a]pyridin-3-yl)imidazo[1,2-b]pyridazin-2-yl)propanamide], the IC50 (CK1δ) was 1.67 nM and the IC50 (CK1ε) was 17.1 nM.
Work on `O=C(Nc1cn2nc(-c3c(-c4ccc(F)cc4)ncn3C3CCN(C(=O)OC4CCCC4)CC3)ccc2n1)c1ccnc(F)c1` [Compound 77, cyclopentyl 4-(5-(2-(2-fluoroisonicotinamido)imidazo[1,2-b]pyridazin-6-yl)-4-(4-fluorophenyl)-1H-imidazol-1-yl)piperidine-1-carboxylate] yielded an IC50 (CK1δ) of 0.744 nM and an IC50 (CK1ε) of 14 nM.
With `O=C(Nc1cn2nc(-c3c(-c4ccc(F)cc4)nc(C4CC4)n3C3CCN(c4ccncc4)CC3)ccc2n1)c1ccnc(F)c1` [Compound 123, N-(6-(2-cyclopropyl-4-(4-fluorophenyl)-1-(1-(pyridin-4-yl)piperidin-4-yl)-1H-imidazol-5-yl)imidazo[1,2-b]pyridazin-2-yl)-2-fluoroisonicotinamide] the IC50 (CK1δ) was 2.86 nM and the IC50 (CK1ε) was 16.7 nM.
Compound `Cc1nc(-c2cccnc2)sc1C(=O)Nc1cn2nc(-c3c(-c4ccc(F)cc4)ncn3C3CCN(C(=O)CC(F)(F)F)CC3)ccc2n1` [Compound 102, N-(6-(4-(4-fluorophenyl)-1-(1-(3,3,3-trifluoropropanoyl)piperidin-4-yl)-1H-imidazol-5-yl)imidazo [1,2-b]pyridazin-2-yl)-4-methyl-2-(pyridin-3-yl)thiazole-5-carboxamide] has an IC50 (CK1δ) of 0.243 nM and an IC50 (CK1ε) of 0.484 nM.
`O=C(Nc1cn2nc(-c3c(-c4ccc(Cl)cc4)ncn3CC(F)F)ccc2n1)c1ccnc(F)c1` [Compound 244, N-(6-(4-(4-chlorophenyl)-1-(2,2-difluoroethyl)-1H-imidazol-5-yl)imidazo[1,2-b]pyridazin-2-yl)-2-fluoroisonicotinamide] showed an IC50 (CK1δ) of 0.204 nM.
In the case of `CN1CCC(CN2CCC(n3cnc(-c4ccc(F)cc4)c3-c3ccc4nc(NC(=O)c5ccnc(F)c5)cn4n3)CC2)CC1` [Compound 25, 2-fluoro-N-(6-(4-(4-fluorophenyl)-1-(1-((1-methylpiperidin-4-yl)methyl)piperidin-4-yl)-1H-imidazol-5-yl)imidazo[1,2-6]pyridazin-2-yl)isonicotinamide], the IC50 (CK1δ) is reported as 0.532 nM.
`O=C(Nc1cn2nc(-c3c(-c4ccc(F)cc4)ncn3C3CCN(Cc4ncco4)CC3)ccc2n1)c1ccnc(F)c1` [Compound 29, 2-fluoro-N-(6-(4-(4-fluorophenyl)-1-(1-(oxazol-2-ylmethyl)piperidin-4-yl)-1H-imidazol-5-yl)imidazo[1,2-6]pyridazin-2-yl)isonicotinamide] showed an IC50 (CK1δ) of 0.226 nM.
For `O=C(Nc1cn2nc(-c3c(-c4ccc(F)cc4)ncn3C3CCN(CC4CCOCC4)CC3)ccc2n1)c1ccnc(F)c1` [Compound 19], the IC50 (CK1δ) was 0.611 nM.
`O=C(Nc1cn2nc(-c3c(-c4ccc(F)cc4)ncn3C3CCNCC3)ccc2n1)c1ccncc1` [Compound 1, N-(6-(4-(4-fluorophenyl)-1-(piperidin-4-yl)-1H-imidazol-5-yl)imidazo[1,2-b]pyridazin-2-yl)isonicotinamide] was tested, and the IC50 (CK1δ) was 0.064 nM.
For `Cc1nocc1C(=O)N1CCC(n2cnc(-c3ccc(F)cc3)c2-c2ccc3nc(NC(=O)c4ccnc(F)c4)cn3n2)CC1` [Compound 63, 2-fluoro-N-(6-(4-(4-fluorophenyl)-1-(1-(3-methylisoxazole-4-carbonyl)piperidm-4-yl)-1H-imidazol-5-yl)imidazo[1,2-6]pyridazin-2-yl)isonicotinamide], the IC50 (CK1ε) was 0.391 nM.
For `O=C(Nc1cn2nc(-c3c(-c4ccc(F)cc4)nc4ccccn34)ccc2n1)C1CC1` [Compound 185, N-(6-(2-(4-fluorophenyl)imidazo[1,2-a]pyridin-3-yl)imidazo[1,2-b]pyridazin-2-yl)cyclopropanecarboxamide], the IC50 (CK1δ) was 3.8 nM.
Work on `O=C(Nc1cn2nc(-c3c(-c4ccc(F)cc4)ncn3C3CCNCC3)ccc2n1)c1ccnc2ccccc12` [Compound 109, N-(6-(4-(4-fluorophenyl)-1-(piperidin-4-yl)-1H-imidazol-5-yl)imidazo[1,2-b]pyridazin-2-yl)quinoline-4-carboxamide] yielded an IC50 (CK1ε) of 1.03 nM.
Compound `O=C(Nc1cn2nc(-c3c(-c4ccc(F)cc4)ncn3C3CCN(C(=O)C4CCC4)CC3)ccc2n1)c1ccnc(F)c1` [Compound 68, N-(6-(1-(1-(cyclobutanecarbonyl)piperidin-4-yl)-4-(4-fluorophenyl)-1H-imidazol-5-yl)imidazo[1,2-b]pyridazin-2-yl)-2-fluoroisonicotinamide] has an IC50 (CK1δ) of 0.193 nM.
`Cc1nc(-c2ccc(F)cc2)c(-c2ccc3nc(NC(=O)C(=O)c4ccccc4)cn3n2)n1C` [Compound 317, N-(6-(4-(4-fluorophenyl)-1,2-dimethyl-1H-imidazol-5-yl)imidazo[1,2-b]pyridazin-2-yl)-2-oxo-2-phenylacetamide] was tested, and the IC50 (CK1δ) was 1.21 nM.
